In PubChem BioAssay (NCI):
Several values for one entry are separate records, joined by “and”; a condition that tells them apart may be missing. Identical values can stand only once.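 In this assay, cells in 96-well plates receive the compound at five concentrations for 48 hours. Endpoints are linearly interpolated between the surrounding concentrations. GI50 = concentration required for 50% inhibition of growth. Definition used: TGI = concentration required for complete inhibition of growth.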

Legend:
Assay in all cases: NCI anticancer screen, dose series, 48 h
A498 renal = test system: A498 renal
BT-549 breast = test system: BT-549 breast
HCC-2998 colon = test system: HCC-2998 colon
HL-60(TB) leukemia = test system: HL-60(TB) leukemia
IGROV1 ovarian = test system: IGROV1 ovarian
MDA-MB-435 = test system: MDA-MB-435
OVCAR-8 ovarian = test system: OVCAR-8 ovarian
SF-295 CNS = test system: SF-295 CNS
SR leukemia = test system: SR leukemia
U251 CNS = test system: U251 CNS

Row | Compound | GI50 (A498 renal) | TGI (A498 renal) | GI50 (BT-549 breast) | TGI (BT-549 breast) | GI50 (HCC-2998 colon) | TGI (HCC-2998 colon) | TGI (HL-60(TB) leukemia) | GI50 (IGROV1 ovarian) | TGI (IGROV1 ovarian) | GI50 (MDA-MB-435) | TGI (MDA-MB-435) | GI50 (OVCAR-8 ovarian) | TGI (OVCAR-8 ovarian) | GI50 (SF-295 CNS) | TGI (SF-295 CNS) | TGI (SR leukemia) | GI50 (U251 CNS) | TGI (U251 CNS) | GI50 (HL-60(TB) leukemia) | GI50 (SR leukemia)
1 | O=C(/C=C/c1cccc(S(=O)(=O)Nc2ccccc2)c1)NO | 0.273 µM and 0.305 µM | 1.34 µM and 1.12 µM | 3.53 µM and 2.16 µM | 44.5 µM and 71.9 µM | 0.519 µM and 0.258 µM | 2.48 µM and 1.91 µM | 29.8 µM | 0.623 µM and 0.116 µM | 4.43 µM and > 26.6 µM | 0.29 µM and 0.194 µM | 3.48 µM and 2.07 µM | 0.309 µM and 0.0341 µM | 16.9 µM and 17 µM | 0.579 µM and 0.603 µM | 3.12 µM and 3.97 µM | 22.8 µM | 0.597 µM and 0.496 µM | 4.38 µM and 10.7 µM |  | 
2 | COc1ccc(/C=C/C(=O)c2ccc(Nc3nc(Nc4ccc(F)cc4)nc(Nc4ccc(Cl)cc4)n3)cc2)cc1 | > 100 µM | > 100 µM | > 100 µM | > 100 µM | > 100 µM | > 100 µM | > 100 µM | 17.7 µM | > 100 µM | > 100 µM | > 100 µM | > 100 µM | > 100 µM | > 100 µM | > 100 µM | 38.2 µM | 49 µM | > 100 µM | 84 µM | 4.68 µM
3 | C=C1C(=O)OC2CC1C(OC(C)=O)C/C(C)=C/CC/C(C)=C\CCC2(C)O (stereo not given) |  | 17.1 µM and 21.4 µM | 4.31 µM and 2.05 µM | 15.5 µM and 5.35 µM |  | 17.5 µM and 21.1 µM | 2.64 µM | 3.34 µM and 6.68 µM | 14.5 µM and 20.1 µM |  | 18.6 µM |  | 14.6 µM and 12.6 µM |  | 46.8 µM and 37 µM | 4.85 µM |  | 25.2 µM and 26.7 µM |  | 
4 | N#C/C(=C\c1ccc(F)cc1)n1nc2cccc(F)c2n1 | 2.04 µM | 7.25 µM | 4.72 µM | > 100 µM | 7.14 µM | > 100 µM | 7.68 µM | 5.01 µM | > 100 µM | 1.89 µM | 4.62 µM | 5.06 µM | > 100 µM | 3.53 µM | > 100 µM | > 100 µM | 3.52 µM | > 100 µM | 2.69 µM | 2.31 µM
5 | O=C(Cc1ccc(Nc2ccnc(C(F)(F)F)c2)cc1)N/N=C/c1ccccc1O | 11.2 µM | > 57.9 µM | 2.43 µM | > 39.2 µM | 1.16 µM | 10.8 µM | 5.44 µM | 2.35 µM | > 24.7 µM | 3.67 µM | > 77.5 µM | 3.15 µM | > 69.4 µM | 2.72 µM | 38 µM | 4.61 µM | 1.87 µM | > 54.8 µM | 1.9 µM | 0.352 µM
6 | NS(=O)(=O)c1ccc(N=C2C(=O)Nc3ccccc32)cc1 |  | > 100 µM |  | > 100 µM |  | > 100 µM | > 100 µM |  | > 100 µM |  | 72.7 µM |  | > 100 µM |  | > 100 µM | > 100 µM |  | > 100 µM |  | 
7 | Cc1cc(=O)oc2cc(OC(=O)Nc3ccccc3)ccc12 |  | > 100 µM |  | > 100 µM |  | > 100 µM | 44.9 µM |  | > 100 µM |  | > 100 µM |  | > 100 µM |  | > 100 µM | 83.5 µM |  | > 100 µM |  | 
